In brackets after ≈: the same amount, converted by molar mass.
Key:
Format in all cases: cell-based
S. marcescens IAM 1184 = assay: MIC against standard strains (Table 1), S. marcescens IAM 1184; conditions: Serratia marcescens, IAM1184, Muller-Hinton agar, overnight 37° C., read-out: MIC (minimum growth inhibitory concentration)
Procedure: (§1) The minimum growth inhibitory concentration (MIC, μg/ml) of the compounds for each of the 25 standard laboratory strains (standard strains) shown in Table 1 was determined in accordance with the standard method of the Japan Chemotherapical Society (Chemotherapy, 29, 76-79 (1981) under "Re-revision of the measuring methods of minimum growth inhibitory concentration (MIC)").
(§2) That is, by using each test strain cultured overnight at 37° C. in a Muller-Hinton broth, there was prepared a bacterial solution with a cell density of 1×10^6 CFU/ml in the same broth. The bacterial solution was inoculated into the Muller-Hinton agar media each containing respectively one test agent (i.e., compound) and, after overnight incubation at 37° C., the minimum concentration that inhibited growth of the bacteria was determined and expressed as MIC.
(§3) Staphylococcus aureus 167 and Staphylococcus aureus 195 used in the test were MRSA. CTM (cefotiam) and FMOX (flomoxef) were used as the control agents.

P. aeruginosa NCTC 10490 = assay: MIC against standard strains (Table 1), P. aeruginosa NCTC 10490; conditions: Pseudomonas aeruginosa, NCTC10490, Muller-Hinton agar, overnight 37° C., read-out: MIC (minimum growth inhibitory concentration)
Procedure: as §1, §2, §3

S. aureus Smith = assay: MIC against standard strains (Table 1), S. aureus Smith; conditions: Staphylococcus aureus, Muller-Hinton agar, overnight 37° C., read-out: MIC (minimum growth inhibitory concentration)
Procedure: as §1, §2, §3

clinically isolated MRSA = assay: Antibacterial potency against clinically isolated MRSA (47 strains); conditions: Staphylococcus aureus; for MIC50: concentration inhibiting growth of 50% of 47 clinically isolated MRSA strains; for MIC90: concentration inhibiting growth of 90% of 47 clinically isolated MRSA strains
Procedure: A test on the antibacterial potency against clinically isolated MRSA was conducted in the following way.
That is, using 47 strains of clinically isolated MRSA, MIC was determined for each of the test strains in accordance with the standard method of the Japan Chemotherapical Society as in Test Example 1, and the minimum growth inhibitory concentration which inhibited growth of 50% of the strains tested was expressed as MIC50 (μg/ml), and the minimum growth inhibitory concentration which inhibited growth of 90% of the strains tested was expressed as MIC90 (μg/ml).
In this test, FMOX was used as the control agent.

S. aureus 167 = assay: MIC against standard strains (Table 1), S. aureus 167 (MRSA); conditions: Staphylococcus aureus, Muller-Hinton agar, overnight 37° C., read-out: MIC (minimum growth inhibitory concentration)
Procedure: as §1, §2, §3

E. coli CSH2(RE45) = assay: MIC against standard strains (Table 1), E. coli CSH2(RE45); conditions: Escherichia coli, read-out: MIC (minimum growth inhibitory concentration)
Procedure: as §1, §2, §3

S. epidemidis IAM 1296 = assay: MIC against standard strains (Table 1), S. epidemidis IAM 1296; conditions: Muller-Hinton agar, overnight 37° C., read-out: MIC (minimum growth inhibitory concentration)
Procedure: as §1, §2, §3

S. aureus 209p JC-1 = assay: MIC against standard strains (Table 1), S. aureus 209p JC-1; conditions: Staphylococcus aureus, Muller-Hinton agar, overnight 37° C., read-out: MIC (minimum growth inhibitory concentration)
Procedure: as §1, §2, §3

E. coli CSH2(RK1) = assay: MIC against standard strains (Table 1), E. coli CSH2(RK1); conditions: Escherichia coli, read-out: MIC (minimum growth inhibitory concentration)
Procedure: as §1, §2, §3

S. aureus 195 = assay: MIC against standard strains (Table 1), S. aureus 195 (MRSA); conditions: Staphylococcus aureus, Muller-Hinton agar, overnight 37° C., read-out: MIC (minimum growth inhibitory concentration)
Procedure: as §1, §2, §3

P. vulugaris OX-19 = assay: MIC against standard strains (Table 1), P. vulugaris OX-19; conditions: Muller-Hinton agar, overnight 37° C., read-out: MIC (minimum growth inhibitory concentration)
Procedure: as §1, §2, §3

E. cloacae ATCC 13407 = assay: MIC against standard strains (Table 1), E. cloacae ATCC 13407; conditions: Enterobacter cloacae, ATCC13407, Muller-Hinton agar, overnight 37° C., read-out: MIC (minimum growth inhibitory concentration)
Procedure: as §1, §2, §3

K. pneuminiae IFO 3317 = assay: MIC against standard strains (Table 1), K. pneuminiae IFO 3317; conditions: Muller-Hinton agar, overnight 37° C., read-out: MIC (minimum growth inhibitory concentration)
Procedure: as §1, §2, §3

M. luteus ATCC 9341 = assay: MIC against standard strains (Table 1), M. luteus ATCC 9341; conditions: Micrococcus luteus, ATCC9341, Muller-Hinton agar, overnight 37° C., read-out: MIC (minimum growth inhibitory concentration)
Procedure: as §1, §2, §3

P. aeruginosa AKR17 = assay: MIC against standard strains (Table 1), P. aeruginosa AKR17; conditions: Pseudomonas aeruginosa, Muller-Hinton agar, overnight 37° C., read-out: MIC (minimum growth inhibitory concentration)
Procedure: as §1, §2, §3

A. calcoaceticos T59 = assay: MIC against standard strains (Table 1), A. calcoaceticos T59; conditions: Muller-Hinton agar, overnight 37° C., read-out: MIC (minimum growth inhibitory concentration)
Procedure: as §1, §2, §3

M. morganii IFO 3848 = assay: MIC against standard strains (Table 1), M. morganii IFO 3848; conditions: Morganella morganii, IFO3848, Muller-Hinton agar, overnight 37° C., read-out: MIC (minimum growth inhibitory concentration)
Procedure: as §1, §2, §3

S. marcescens No. 16-2 = assay: MIC against standard strains (Table 1), S. marcescens No. 16-2; conditions: Serratia marcescens, NO.162, Muller-Hinton agar, overnight 37° C., read-out: MIC (minimum growth inhibitory concentration)
Procedure: as §1, §2, §3

A. faecalis ATCC 3750 = assay: MIC against standard strains (Table 1), A. faecalis ATCC 3750; conditions: Alcaligenes faecalis, ATCC3750, Muller-Hinton agar, overnight 37° C., read-out: MIC (minimum growth inhibitory concentration)
Procedure: as §1, §2, §3

E. coli JC-2 = assay: MIC against standard strains (Table 1), E. coli JC-2; conditions: Escherichia coli, JC2, Muller-Hinton agar, overnight 37° C., read-out: MIC (minimum growth inhibitory concentration)
Procedure: as §1, §2, §3

C. freundii ATCC 8090 = assay: MIC against standard strains (Table 1), C. freundii ATCC 8090; conditions: Citrobacter freundii, ATCC8090, Muller-Hinton agar, overnight 37° C., read-out: MIC (minimum growth inhibitory concentration)
Procedure: as §1, §2, §3

P. mirabilis IFO 3849 = assay: MIC against standard strains (Table 1), P. mirabilis IFO 3849; conditions: Proteus mirabilis, IFO3849, Muller-Hinton agar, overnight 37° C., read-out: MIC (minimum growth inhibitory concentration)
Procedure: as §1, §2, §3

K. pneuminiae No. 42 = assay: MIC against standard strains (Table 1), K. pneuminiae No. 42; conditions: Muller-Hinton agar, overnight 37° C., read-out: MIC (minimum growth inhibitory concentration)
Procedure: as §1, §2, §3

B. subtilis ATCC 6633 = assay: MIC against standard strains (Table 1), B. subtilis ATCC 6633; conditions: Bacillus subtilis, ATCC6633, Muller-Hinton agar, overnight 37° C., read-out: MIC (minimum growth inhibitory concentration)
Procedure: as §1, §2, §3

E. cloacae Nek39 = assay: MIC against standard strains (Table 1), E. cloacae Nek39; conditions: Enterobacter cloacae, Muller-Hinton agar, overnight 37° C., read-out: MIC (minimum growth inhibitory concentration)
Procedure: as §1, §2, §3

P. cepacia CN 9113 = assay: MIC against standard strains (Table 1), P. cepacia CN 9113; conditions: Burkholderia cepacia, CN9113, Muller-Hinton agar, overnight 37° C., read-out: MIC (minimum growth inhibitory concentration)
Procedure: as §1, §2, §3

SMILES	MIC (S. marcescens IAM 1184) [µg/mL]	MIC (P. aeruginosa NCTC 10490) [µg/mL]	MIC (S. aureus Smith) [µg/mL]	MIC50 (clinically isolated MRSA) [µg/mL]	MIC90 (clinically isolated MRSA) [µg/mL]	MIC (E. coli CSH2(RE45)) [µg/mL]	MIC (S. epidemidis IAM 1296) [µg/mL]	MIC (S. aureus 209p JC-1) [µg/mL]	MIC (E. coli CSH2(RK1)) [µg/mL]	MIC (S. aureus 195) [µg/mL]	MIC (P. vulugaris OX-19) [µg/mL]	MIC (E. cloacae ATCC 13407) [µg/mL]	MIC (K. pneuminiae IFO 3317) [µg/mL]	MIC (M. luteus ATCC 9341) [µg/mL]	MIC (P. aeruginosa AKR17) [µg/mL]	MIC (A. calcoaceticos T59) [µg/mL]	MIC (M. morganii IFO 3848) [µg/mL]	MIC (S. marcescens No. 16-2) [µg/mL]	MIC (A. faecalis ATCC 3750) [µg/mL]	MIC (E. coli JC-2) [µg/mL]	further results
NC(=O)c1cc[n+](C/C=C/C2=C(C(=O)[O-])N3C(=O)[C@@H](NC(=O)/C(=N\O)c4csc(N)n4)[C@H]3SC2)cc1 [Compound 19, 7β-[2-(2-aminothiazol-4-yl)-2-syn-hydroxyiminoacetamido]-3-[(E)-3-(4-carbamoylpyridinio)-1-propenyl]-3-cephem-4-carboxylate]	0.1 (≈ 0.189 µM)	1.56 (≈ 2.95 µM)	0.2 (≈ 0.378 µM)	2.92 (≈ 5.51 µM)	17.4 (≈ 32.8 µM)	0.1 (≈ 0.189 µM)	0.05 (≈ 0.0944 µM)	0.1 (≈ 0.189 µM)	0.2 (≈ 0.378 µM)	3.13 (≈ 5.91 µM)	0.1 (≈ 0.189 µM)	0.39 (≈ 0.736 µM)	0.05 (≈ 0.0944 µM)	0.05 (≈ 0.0944 µM)	> 100	3.13 (≈ 5.91 µM)	0.05 (≈ 0.0944 µM)	12.5 (≈ 23.6 µM)	1.56 (≈ 2.95 µM)	0.1 (≈ 0.189 µM)	MIC (S. aureus 167): 100 µg/mL (≈ 189 µM); MIC (C. freundii ATCC 8090): 0.05 µg/mL (≈ 0.0944 µM); MIC (P. mirabilis IFO 3849): 0.2 µg/mL (≈ 0.378 µM); MIC (K. pneuminiae No. 42): 0.1 µg/mL (≈ 0.189 µM); MIC (B. subtilis ATCC 6633): 0.2 µg/mL (≈ 0.378 µM); MIC (E. cloacae Nek39): 12.5 µg/mL (≈ 23.6 µM); MIC (P. cepacia CN 9113): > 100 µg/mL
CO[C@@]1(NC(=O)CSC(F)F)C(=O)N2C(C(=O)O)=C(CSc3nnnn3CCO)CO[C@@H]21 [FMOX, flomoxef, reference compound]	0.2 (≈ 0.403 µM)	> 100	0.39 (≈ 0.786 µM)	5.13 (≈ 10.3 µM)	32.1 (≈ 64.6 µM)	0.1 (≈ 0.201 µM)	0.2 (≈ 0.403 µM)	0.39 (≈ 0.786 µM)	0.1 (≈ 0.201 µM)	3.13 (≈ 6.3 µM)	0.39 (≈ 0.786 µM)	100 (≈ 201 µM)	0.05 (≈ 0.101 µM)	0.1 (≈ 0.201 µM)	> 100	100 (≈ 201 µM)	0.39 (≈ 0.786 µM)	100 (≈ 201 µM)	0.1 (≈ 0.201 µM)	0.1 (≈ 0.201 µM)	MIC (C. freundii ATCC 8090): 0.2 µg/mL (≈ 0.403 µM); MIC (P. mirabilis IFO 3849): 0.2 µg/mL (≈ 0.403 µM); MIC (K. pneuminiae No. 42): 0.1 µg/mL (≈ 0.201 µM); MIC (B. subtilis ATCC 6633): 0.2 µg/mL (≈ 0.403 µM); MIC (E. cloacae Nek39): 100 µg/mL (≈ 201 µM); MIC (P. cepacia CN 9113): 100 µg/mL (≈ 201 µM)
CO/N=C(\C(=O)N[C@@H]1C(=O)N2C(C(=O)[O-])=C(/C=C/C[n+]3cccc(NC(N)=O)c3)CS[C@H]12)c1csc(N)n1 [Compound 6, 7β-[2-(2-aminothiazol-4-yl)-2-syn-methoxyiminoacetamido]-3-[(E)-3-(3-ureidopyridinio]-1-propenyl]-3-cephem-4-carboxylate]	0.025 (≈ 0.0448 µM)	0.39 (≈ 0.698 µM)	0.39 (≈ 0.698 µM)	13.8 (≈ 24.7 µM)	67 (≈ 120 µM)	0.1 (≈ 0.179 µM)	0.2 (≈ 0.358 µM)	0.39 (≈ 0.698 µM)	0.025 (≈ 0.0448 µM)	12.5 (≈ 22.4 µM)	0.025 (≈ 0.0448 µM)	0.2 (≈ 0.358 µM)	0.025 (≈ 0.0448 µM)	0.025 (≈ 0.0448 µM)	> 100	6.25 (≈ 11.2 µM)	0.025 (≈ 0.0448 µM)	0.78 (≈ 1.4 µM)	0.39 (≈ 0.698 µM)	0.025 (≈ 0.0448 µM)	MIC (S. aureus 167): 50 µg/mL (≈ 89.5 µM); MIC (C. freundii ATCC 8090): 0.025 µg/mL (≈ 0.0448 µM); MIC (P. mirabilis IFO 3849): 0.025 µg/mL (≈ 0.0448 µM); MIC (K. pneuminiae No. 42): 0.1 µg/mL (≈ 0.179 µM); MIC (B. subtilis ATCC 6633): 0.2 µg/mL (≈ 0.358 µM); MIC (E. cloacae Nek39): 3.13 µg/mL (≈ 5.6 µM); MIC (P. cepacia CN 9113): 50 µg/mL (≈ 89.5 µM)

From US5534508A, “Cephem compounds and antimicrobial agents” (Katayama Seiyakusyo Co., Ltd., priority 1993, dated 1996)
